Values quoted from earlier work in US10463642B2, “Methods of treating heart failure diseases using prodrugs of methyl hydrogen fumarate” (priority 2016, dated 2019).
Where a name gives a salt, the structure may show the parent alone. Read-outs that look alike come from different tables or passages of the source.

Assays:
[1] = healthy subjects, steady state
[2] = test system: central nervous system (CNS) inflammation; conditions: rat EAE
[3] = test system: central nervous system (CNS) inflammation; conditions: murine EAE

SMILES | dose comparable to 240 mg DMF (Tecfidera) by comparing plasma levels of MHF [1] [mg] | CNS inflammation in EAE [2] | CNS inflammation in EAE [3]
CCN(CC)C(=O)COC(=O)/C=C/C(=O)OC [XP23829, (N,N-diethylcarbamoyl)methyl methyl (2E)but-2-ene-1,4-dioate] | 400 | – | –
COC(=O)/C=C/C(=O)OC [DMF, Dimethyl fumarate] | – | inhibit | inhibit
